Results reported in PubChem BioAssay AID248 (DTP/NCI, 2004).
“And” between values parts separate entries of the source, which are not always exact repeats. Identical values can stand only once. Inconclusive results and toxic doses are left out. No stated cut-off is given here; in the data, active means T/C of 150% or more; inactive means T/C below 125%.

System: L1210 leukemia ip in BDF1 mice, survival T/C
Assay: NCI In Vivo Anticancer Drug Screen. Data for tumor model L1210 Leukemia (intraperitoneal) in B6D2F1 (BDF1) mice
Conditions: endpoint: mean survival time, higher = longer survival
In short: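 Value reflects the ratio of survival in compound-treated mice to survival in vehicle-treated controls, with both groups carrying the same transplanted tumor.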

[1] = dose: 100.0 mg/kg/injection, schedule: Q01DX001 (ip), vehicle: carboxymethylcellulose (CMC)
[2] = dose: 200.0 mg/kg/injection, schedule: Q01DX001 (ip), vehicle: carboxymethylcellulose (CMC)
[3] = dose: 400.0 mg/kg/injection, schedule: Q01DX001 (ip), vehicle: carboxymethylcellulose (CMC)
[4] = dose: 100.0 mg/kg/injection, schedule: Q01DX009 (ip), vehicle: Klucel (hydroxypropylcellulose) (HPC)
[5] = dose: 100.0 mg/kg/injection, schedule: Q01DX001 (ip), vehicle: saline
[6] = dose: 200.0 mg/kg/injection, schedule: Q01DX001 (ip), vehicle: saline
[7] = dose: 400.0 mg/kg/injection, schedule: Q01DX001 (ip), vehicle: saline
[8] = dose: 100.0 mg/kg/injection, schedule: Q04DX003 (ip), vehicle: Klucel (hydroxypropylcellulose) (HPC)
[9] = dose: 200.0 mg/kg/injection, schedule: Q04DX003 (ip), vehicle: Klucel (hydroxypropylcellulose) (HPC)
[10] = dose: 400.0 mg/kg/injection, schedule: Q04DX003 (ip), vehicle: Klucel (hydroxypropylcellulose) (HPC)
[11] = dose: 44.0 mg/kg/injection, schedule: Q01DX Z (ip), vehicle: methylcellulose (MC)
[12] = dose: 100.0 mg/kg/injection, schedule: Q01DX Z (ip), vehicle: methylcellulose (MC)
[13] = dose: 200.0 mg/kg/injection, schedule: Q01DX009 (ip), vehicle: Klucel (hydroxypropylcellulose) (HPC)

Measured: T/C

CCN(CC)CCCN1c2ccccc2Sc2ccc(Cl)cc21
inactive: dose: 1.56 mg/kg/injection, schedule: Q01DX009 (ip), vehicle: saline 102 % of control | dose: 3.12 mg/kg/injection, schedule: Q01DX009 (ip), vehicle: saline 98 % of control | dose: 6.25 mg/kg/injection, schedule: Q01DX009 (ip), vehicle: saline 96 % of control | dose: 12.5 mg/kg/injection, schedule: Q01DX009 (ip), vehicle: saline 103 % of control | dose: 12.5 mg/kg/injection, schedule: Q04DX003 (ip), vehicle: saline 102 % of control | dose: 25.0 mg/kg/injection, schedule: Q04DX003 (ip), vehicle: saline 109 % of control

O=C1NC2c3ccccc3CCC12 (stereo not drawn)
inactive: dose: 100.0 mg/kg/injection, schedule: Q04DX002 (ip), vehicle: saline with Tween-80 102 % of control | dose: 200.0 mg/kg/injection, schedule: Q04DX002 (ip), vehicle: saline with Tween-80 100 % of control | dose: 400.0 mg/kg/injection, schedule: Q04DX002 (ip), vehicle: saline with Tween-80 96 % of control

CCCCC(=O)N/N=C\c1cccc2ccccc12
inactive: [1] 86 % of control | [2] 88 % of control | [3] 96 % of control

CSc1sc2ccc(S(=O)(=O)O)cc2[n+]1C
inactive: dose: 100.0 mg/kg/injection, schedule: Q04DX003 (ip), vehicle: saline with Tween-80 97 % of control | dose: 200.0 mg/kg/injection, schedule: Q04DX003 (ip), vehicle: saline with Tween-80 94 % of control

CCC(=O)c1ccc(OC(C)=O)cc1
inactive: dose: 222.0 mg/kg/injection, schedule: Q01DX Z (ip), vehicle: carboxymethylcellulose (CMC) 100 % of control | dose: 333.0 mg/kg/injection, schedule: Q01DX Z (ip), vehicle: carboxymethylcellulose (CMC) 118 % of control | dose: 500.0 mg/kg/injection, schedule: Q01DX Z (ip), vehicle: carboxymethylcellulose (CMC) 108 % of control

O=C(OCC(F)(F)C(F)(F)C(F)(F)C(F)F)c1ccccc1C(=O)OCC(F)(F)C(F)(F)C(F)(F)C(F)F
inactive: dose: 50.0 mg/kg/injection, schedule: Q01DX001 (ip), vehicle: carboxymethylcellulose (CMC) 91 % of control | [1] 107 % of control | [2] 105 % of control | [3] 94 % of control

Cc1cc(C)c(NC(=O)c2c(Cl)c(Cl)c(Cl)c(Cl)c2C(=O)O)c(C)c1
inactive: dose: 25.0 mg/kg/injection, schedule: Q01DX009 (ip), vehicle: Klucel (hydroxypropylcellulose) (HPC) 102 % of control | dose: 50.0 mg/kg/injection, schedule: Q01DX009 (ip), vehicle: Klucel (hydroxypropylcellulose) (HPC) 105 % of control | [4] 94 % of control and 116 % of control

CC1(C)C2CCC1C(O)C2 (stereo not drawn)
inactive: dose: 75.0 mg/kg/injection, schedule: Q01DX009 (ip), vehicle: saline 104 % of control | dose: 150.0 mg/kg/injection, schedule: Q01DX009 (ip), vehicle: saline 103 % of control | dose: 300.0 mg/kg/injection, schedule: Q01DX009 (ip), vehicle: saline 94 % of control

O=[N+]([O-])C1CC=CCC1c1ccc(C2CC=CCC2[N+](=O)[O-])cc1 (stereo not drawn)
inactive: [1] 96 % of control | [2] 94 % of control | [3] 92 % of control

CCCC1C(=O)N2C(N(C)C)=Nc3ccc(C)cc3N2C1=O (stereo not drawn)
inactive: dose: 50.0 mg/kg/injection, schedule: Q01DX009 (ip), vehicle: carboxymethylcellulose (CMC) 101 % of control | [5] 110 % of control | dose: 100.0 mg/kg/injection, schedule: Q01DX009 (ip), vehicle: carboxymethylcellulose (CMC) 101 % of control | [6] 98 % of control | dose: 200.0 mg/kg/injection, schedule: Q01DX009 (ip), vehicle: carboxymethylcellulose (CMC) 101 % of control | [7] 93 % of control | dose: 400.0 mg/kg/injection, schedule: Q01DX009 (ip), vehicle: carboxymethylcellulose (CMC) 92 % of control

CCOC(=O)C(C)(C)OC(=O)Nc1ccccc1
inactive: [8] 98 % of control | [9] 91 % of control | [10] 98 % of control

O=c1ccnc(C(F)(F)F)[nH]1
inactive: [11] 87 % of control | dose: 66.0 mg/kg/injection, schedule: Q01DX Z (ip), vehicle: methylcellulose (MC) 96 % of control | [12] 101 % of control

O=[N+]([O-])c1ccc(F)cc1F
inactive: dose: 22.0 mg/kg/injection, schedule: Q01DX009 (ip), vehicle: Klucel (hydroxypropylcellulose) (HPC) 103 % of control | dose: 43.7 mg/kg/injection, schedule: Q01DX009 (ip), vehicle: Klucel (hydroxypropylcellulose) (HPC) 105 % of control | dose: 87.5 mg/kg/injection, schedule: Q01DX009 (ip), vehicle: Klucel (hydroxypropylcellulose) (HPC) 97 % of control and 114 % of control

CCOC(=O)c1c(C)c(C(=O)CC)c(C)n1C(=O)c1ccccc1
inactive: [5] 100 % of control | [6] 102 % of control | [7] 96 % of control

OC1c2ccccc2CC1N1CCCCC1 (stereo not drawn)
inactive: dose: 100.0 mg/kg/injection, schedule: Q01DX001 (ip), vehicle: saline with Tween-80 97 % of control

O=C(/C=C/c1ccco1)c1ccc(Cl)cc1
inactive: dose: 100.0 mg/kg/injection, schedule: Q01DX009 (ip), vehicle: saline sonified 91 % of control | dose: 200.0 mg/kg/injection, schedule: Q01DX009 (ip), vehicle: saline sonified 104 % of control | dose: 400.0 mg/kg/injection, schedule: Q01DX009 (ip), vehicle: saline sonified 94 % of control

CN(CCC[N+](C)(C)C)C(=O)C(c1ccccc1)c1ccccc1
inactive: dose: 100.0 mg/kg/injection, schedule: Q04DX003 (ip), vehicle: saline 100 % of control

O=C(Oc1ccccc1Cl)c1ccccc1
inactive: dose: 100.0 mg/kg/injection, schedule: Q01DX009 (ip), vehicle: saline with Tween-80 113 % of control | dose: 200.0 mg/kg/injection, schedule: Q01DX009 (ip), vehicle: saline with Tween-80 116 % of control

O=[N+]([O-])c1ccc(Oc2cccc(C(F)(F)F)c2)nc1
inactive: [4] 101 % of control | [8] 101 % of control | [13] 103 % of control | [9] 95 % of control | dose: 400.0 mg/kg/injection, schedule: Q01DX009 (ip), vehicle: Klucel (hydroxypropylcellulose) (HPC) 107 % of control | [10] 101 % of control

Cc1cccc(NC(=O)c2c(Br)c(Br)c(Br)c(Br)c2C(=O)O)c1C
inactive: [4] 100 % of control | [13] 103 % of control

NC(N)=NCCCC(NC(=O)c1ccccc1)C(=O)O (stereo not drawn)
inactive: dose: 100.0 mg/kg/injection, schedule: Q01DX001 (ip), vehicle: other 104 % of control | dose: 100.0 mg/kg/injection, schedule: Q01DX009 (ip), vehicle: other 101 % of control | dose: 100.0 mg/kg/injection, schedule: Q04DX003 (ip), vehicle: other 93 % of control | dose: 200.0 mg/kg/injection, schedule: Q01DX001 (ip), vehicle: other 100 % of control | dose: 200.0 mg/kg/injection, schedule: Q01DX009 (ip), vehicle: other 107 % of control | dose: 200.0 mg/kg/injection, schedule: Q04DX003 (ip), vehicle: other 90 % of control | dose: 400.0 mg/kg/injection, schedule: Q01DX001 (ip), vehicle: other 100 % of control | dose: 400.0 mg/kg/injection, schedule: Q01DX009 (ip), vehicle: other 100 % of control | dose: 400.0 mg/kg/injection, schedule: Q04DX003 (ip), vehicle: other 96 % of control

CSC1C(OC(=O)c2ccccc2)C(COC(=O)c2ccccc2)OC1n1cnc2ncnc(NC(=O)c3ccccc3)c21 (stereo not drawn)
inactive: dose: 100.0 mg/kg/injection, schedule: Q01DX005 (ip), vehicle: saline 100 % of control | dose: 200.0 mg/kg/injection, schedule: Q01DX005 (ip), vehicle: saline 92 % of control

CC(C)OC(=O)Nc1ccc(C(F)(F)F)cc1
inactive: dose: 100.0 mg/kg/injection, schedule: Q04DX002 (ip), vehicle: Klucel (hydroxypropylcellulose) (HPC) 97 % of control and 100 % of control | dose: 200.0 mg/kg/injection, schedule: Q04DX002 (ip), vehicle: Klucel (hydroxypropylcellulose) (HPC) 88 % of control | dose: 400.0 mg/kg/injection, schedule: Q04DX002 (ip), vehicle: Klucel (hydroxypropylcellulose) (HPC) 103 % of control and 112 % of control

CC1=COC(C)(C2NC(C)CC(C)(C)N2)CC1 (stereo not drawn)
inactive: [11] 100 % of control | [12] 95 % of control

c1ccc2c(c1)C1CCCCC2c2ccccc21
inactive: dose: 100.0 mg/kg/injection, schedule: Q01DX001 (ip), vehicle: Klucel (hydroxypropylcellulose) (HPC) 102 % of control | dose: 200.0 mg/kg/injection, schedule: Q01DX001 (ip), vehicle: Klucel (hydroxypropylcellulose) (HPC) 97 % of control | dose: 400.0 mg/kg/injection, schedule: Q01DX001 (ip), vehicle: Klucel (hydroxypropylcellulose) (HPC) 100 % of control
